Measured values as given in PubChem BioAssay AID1963869 (Molecular Pharmacology Branch, DTP, NCI, 2024).

Test system: KRAS patient-derived spheroids with HUVEC/MSC, viability
Test: Anticancer human tumor 323965-272-R-J2-PDC patient-derived pancreatic carcinoma cell line growth inhibition [KRAS2]
Conditions: for IC50: curve of first compound; for viability, T/C: stronger effect = lower value
Method in brief: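 KRAS-mutant tumor cells were grown as spheroids with HUVEC endothelial cells and human MSCs as stroma. Targeted agents were tested alone and with KRAS pathway inhibitors. Doses started at or near clinical Cmax, or 10 microM, descending half-log.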

[1] = second compound 0.1 µM, first compound 0.0316 µM
[2] = second compound 0.1 µM, first compound 0.1 µM
[3] = second compound 0.1 µM, first compound 0.316 µM
[4] = second compound 0.1 µM, first compound 1 µM
[5] = second compound 0.1 µM, first compound 3.16 µM
[6] = second compound 0.1 µM, first compound 10 µM
[7] = second compound 0.316 µM, first compound 0.0316 µM
[8] = second compound 0.316 µM, first compound 0.1 µM
[9] = second compound 0.316 µM, first compound 0.316 µM
[10] = second compound 0.316 µM, first compound 1 µM
[11] = second compound 0.316 µM, first compound 3.16 µM
[12] = second compound 0.316 µM, first compound 10 µM
[13] = second compound 1 µM, first compound 0.0316 µM
[14] = second compound 1 µM, first compound 0.1 µM
[15] = second compound 1 µM, first compound 0.316 µM
[16] = second compound 1 µM, first compound 1 µM
[17] = second compound 1 µM, first compound 3.16 µM
[18] = second compound 1 µM, first compound 10 µM
[19] = second compound 3.16 µM, first compound 0.0316 µM
[20] = second compound 3.16 µM, first compound 0.1 µM
[21] = second compound 3.16 µM, first compound 0.316 µM
[22] = second compound 3.16 µM, first compound 1 µM
[23] = second compound 3.16 µM, first compound 3.16 µM
[24] = second compound 3.16 µM, first compound 10 µM
[25] = second compound 10 µM, first compound 0.0316 µM
[26] = second compound 10 µM, first compound 0.1 µM
[27] = second compound 10 µM, first compound 0.316 µM
[28] = second compound 10 µM, first compound 1 µM
[29] = second compound 10 µM, first compound 3.16 µM
[30] = second compound 10 µM, first compound 10 µM
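Note: spheroids exposed to agents for 7 days.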
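Throughout, for viability, T/C: 100% = DMSO vehicle control viability.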

Row | Compound | IC50 (second compound 0.1 µM) [nM] | IC50 (second compound 0.316 µM) [nM] | IC50 (second compound 1 µM) [nM] | IC50 (second compound 3.16 µM) [nM] | IC50 (second compound 10 µM) [nM] | viability, T/C [1] [%] | viability, T/C [2] [%] | viability, T/C [3] [%] | viability, T/C [4] [%] | viability, T/C [5] [%] | viability, T/C [6] [%] | viability, T/C [7] [%] | viability, T/C [8] [%] | viability, T/C [9] [%] | viability, T/C [10] [%] | viability, T/C [11] [%] | viability, T/C [12] [%] | viability, T/C [13] [%] | viability, T/C [14] [%] | viability, T/C [15] [%] | further results
1 | COC(=O)c1ccc2c(C(=Nc3ccc(N(C)C(=O)CN4CCN(C)CC4)cc3)c3ccccc3)c(O)[nH]c2c1 + CC1OCC2(CCN(c3cnc(Sc4ccnc(N)c4Cl)c(N)n3)CC2)C1N | > 10000 | 5080 | < 31.6 | < 31.6 | < 31.6 | 78.8 | 85.7 | 81.8 | 76.3 | 79.1 | 73.4 | 74.8 | 59.2 | 61.1 | 65.2 | 50 | 45.8 | 45.3 | 47.9 | 53.2 | viability, T/C [16]: 41.6%; viability, T/C [17]: 43.9%; viability, T/C [18]: 41.6%; viability, T/C [19]: 34.6%; viability, T/C [20]: 38.7%; viability, T/C [21]: 35.2%; viability, T/C [22]: 36%; viability, T/C [23]: 31.9%; viability, T/C [24]: 33.3%; viability, T/C [25]: 31.8%; viability, T/C [26]: 30.3%; viability, T/C [27]: 29.7%; viability, T/C [28]: 27.5%; viability, T/C [29]: 23.4%; viability, T/C [30]: 23.2%
2 | COc1cc(Nc2ncc3c(n2)-c2ccc(Cl)cc2C(c2c(F)cccc2OC)=NC3)ccc1C(=O)O + CC1OCC2(CCN(c3cnc(Sc4ccnc(N)c4Cl)c(N)n3)CC2)C1N | 89.9 | < 31.6 | < 31.6 | < 31.6 | < 31.6 | 79.5 | 47.3 | 33.8 | 44.3 | 50.6 | 56.2 | 57.2 | 39.9 | 30.8 | 32.6 | 39.1 | 43.8 | 44.9 | 26.6 | 23.4 | viability, T/C [16]: 26.6%; viability, T/C [17]: 30.4%; viability, T/C [18]: 33.7%; viability, T/C [19]: 37.2%; viability, T/C [20]: 22.2%; viability, T/C [21]: 17.7%; viability, T/C [22]: 23%; viability, T/C [23]: 24.1%; viability, T/C [24]: 28.3%; viability, T/C [25]: 29.9%; viability, T/C [26]: 19.3%; viability, T/C [27]: 17.4%; viability, T/C [28]: 20.3%; viability, T/C [29]: 20.9%; viability, T/C [30]: 23.3%
3 | COc1cc2nccc(Oc3ccc(NC(=O)C4(C(=O)Nc5ccc(F)cc5)CC4)cc3)c2cc1OC + CC1OCC2(CCN(c3cnc(Sc4ccnc(N)c4Cl)c(N)n3)CC2)C1N | > 10000 | > 10000 | < 31.6 | < 31.6 | < 31.6 | 80.4 | 80.5 | 74.9 | 87.4 | 79.8 | 73.5 | 58.7 | 65.4 | 65.5 | 64.6 | 71.9 | 63 | 46.9 | 42.4 | 46.9 | viability, T/C [16]: 58.4%; viability, T/C [17]: 52.8%; viability, T/C [18]: 45.4%; viability, T/C [19]: 35.1%; viability, T/C [20]: 36.1%; viability, T/C [21]: 36.3%; viability, T/C [22]: 35.5%; viability, T/C [23]: 35.2%; viability, T/C [24]: 29.8%; viability, T/C [25]: 27.4%; viability, T/C [26]: 28.8%; viability, T/C [27]: 26.8%; viability, T/C [28]: 30.3%; viability, T/C [29]: 33.5%; viability, T/C [30]: 27.3%
